Laboratory results reported in patent EP3860599B1, “(+)-ALPHA-DIHYDROTETRABENAZINE DOSAGE REGIMEN FOR TREATING MOVEMENT DISORDERS” (Adeptio Pharmaceuticals Limited, priority 2018, dated 2020).
Read-outs that look alike come from different tables or passages of the source.

Assays:
[1] = cited from earlier work; for symptoms scored with the abnormal involuntary movement scale (AIMS): KINECT 1, tardive dyskinesia patients
[2] = system: amphetamine-induced rats; assay: Open field locomotor activity test in amphetamine-induced rats (Example 2, Studies 1, 2 and 4); type: in vivo; conditions: 1 mg/kg
Description: (§1) All animal experiments were carried out according to the National Institute of Health (NIH) guidelines for the care and use of laboratory animals, and approved by the National Animal Experiment Board, Finland. Male CD (Charles River Laboratories, Germany) at weight range of 200-250 g (165-200 g upon arrival) were used for the experiments. Animals were housed at a standard temperature (22 ± 1°C) and in a light-controlled environment (lights on from 7 am to 8 pm) with ad libitum access to food and water.
(§2) Locomotor activity of the rats was tested in open field arena. The open field test was performed during the rat light cycle and under a normal lighting evenly distributed to the test chambers. The paths of the rats were recorded by activity monitor (Med. Associates Inc.).
(§3) Dosing the vehicle, vehicle-amphetamine, (+)-α-DHTBZ or risperidone was done prior to LMA test. The rats were placed in the centre of the arena, and the path was recorded for 60 minutes.
Animals were grouped as follows: • Group 1: 10 rats treated with Vehicle (t= 0 min) and Vehicle (t= 30 min) • Group 2: 10 rats treated with Vehicle (t= 0 min) and Amphetamine (t= 30 min) • Group 3: 10 rats treated with (+)-α-DHTBZ 0.5 mg/kg (t=0 min) and Amphetamine (t= 30 min) • Group 4: 10 rats treated with (+)-α-DHTBZ 1 mg/kg (t=0 min) and Amphetamine (t= 30 min) • Group 5: 10 rats treated with (+)-α-DHTBZ 1.5 mg/kg (t=0 min) and Amphetamine (t= 30 min) • Group 6: 10 rats treated with (+)-α-DHTBZ 2 mg/kg (t=0 min) and Amphetamine (t= 30 min) • Group 7: 10 rats treated with risperidone 1 mg/kg (t=0 min) and Amphetamine (t= 30 min)
Animals were grouped as follows: • Group 1: 10 rats treated with Vehicle (t= 0 min) and Vehicle (t= 30 min) • Group 2: 10 rats treated with Vehicle (t= 0 min) and Amphetamine (t= 30 min) • Group 3: 10 rats treated with (+)-α-DHTBZ 0.1 mg/kg (t=0 min) and Amphetamine (t=30 min) • Group 4: 10 rats treated with (+)-α-DHTBZ 0.25 mg/kg (t=0 min) and Amphetamine (t=30 min) • Group 5: 10 rats treated with risperidone 1 mg/kg (t=0 min) and Amphetamine (t= 30 min)
Animals were grouped as follows: • Group 1: 10 rats treated with Vehicle (t= 0 min) and Vehicle (t= 30 min) • Group 2: 10 rats treated with Vehicle (t= 0 min) and Amphetamine (t= 30 min) • Group 3: 10 rats treated with (+)-α-DHTBZ 1 mg/kg (t=0 min) and Amphetamine (t=30 min) • Group 4: 10 rats treated with (+)-α-DHTBZ 1.5 mg/kg (t=0 min) and Amphetamine (t=30 min) • Group 5: 10 rats treated with Valbenazine 1 mg/kg (t=0 min) and Amphetamine (t=30 min) • Group 6: 10 rats treated with Valbenazine 1.5 mg/kg (t=0 min) and Amphetamine (t=30 min) • Group 7: 10 rats treated with risperidone 1 mg/kg (t=0 min) and Amphetamine (t= 30 min)

[3] = system: non-amphetamine induced rats; assay: Open field locomotor activity test in rats without amphetamine induction (Example 2, Study 3); type: in vivo; conditions: 1 mg/kg
Description: as §1, §2, §3
Animals were grouped as follows: • Group 1: 10 rats treated with Vehicle • Group 2: 10 rats treated with (+)-α-DHTBZ 2.5 mg/kg • Group 3: 10 rats treated with (+)-α-DHTBZ 5 mg/kg • Group 4: 10 rats treated with risperidone 1 mg/kg

Compound	symptoms scored with the abnormal involuntary movement scale (AIMS) ([1]; 50 mg/day)	symptoms scored with the abnormal involuntary movement scale (AIMS) ([1]; 100 mg/day)	Abnormal Involuntary Movement Score ([1]; KINECT 3, Tardive Dyskinesia sufferers, 80mg/day)	locomotor activity when compared to the vehicle-amphetamine group ([2]; Study 1 conclusions)	stereotypic behaviour when compared to the vehicle-amphetamine group ([2]; Study 1 conclusions)	locomotor activity when compared to the vehicle-amphetamine group ([2]; Study 2 conclusions)	stereotypic behaviour when compared to the vehicle-amphetamine group ([2]; Study 2 conclusions)	total movement [3]	total stereotypic behaviour [3]
COc1cc2c(cc1OC)[C@H]1C[C@@H](OC(=O)[C@@H](N)C(C)C)[C@H](CC(C)C)CN1CC2 [Valbenazine, reference compound]	did not show any significant signs of improvement	some reduction of symptoms	significant improvement						
Cc1nc2n(c(=O)c1CCN1CCC(c3noc4cc(F)ccc34)CC1)CCCC2 [risperidone, reference compound]				lower locomotor activity	reduced stereotypic behaviour	lower locomotor activity	reduced stereotypic behaviour	reduced total movement	reduced total stereotypic behaviour
